We go through 14 molecules from patent US6844183B2, “Antibiotics RK-1061 and process for preparing the same” (Daiichi Pharmaceutical Co., Ltd., priority 1996, dated 2005).

Where only a bound is given, the exact number is not on record here.

The subject of series [1] is Candida albicans IFO 5994. Briefly: paper disk test, Candida albicans IFO 5994. As to conditions: 20 μg/disc. It is filed as cell-based. The procedure: (§1) Methanol solution of each tested substance with specific concentration was sunk on a paper disk with diameter of 8 mm (Thick, Toyo-roshi) and dried, which was placed on a plate of each bacterium. After culture under the conditions suitable for each bacterium, the diameter of cell growth was measured, The results are shown in Table 4, 5 and 6.

In series [2] the test system is Staphylococcus aureus IFO 12732. Briefly: paper disk antibacterial test, Staphylococcus aureus IFO 12732. The note with it: 20 μg/disc. The class given is cell-based. The procedure: as §1
The subject of series [3] is Mycobacterium phlei IFO 3158. Briefly: paper disk antibacterial test, Mycobacterium phlei. The class given is cell-based. As to conditions: for The diameter of cell growth inhibition zone against M. Phlei: 2 μg/disc; for the diameter of cell growth inhibition zone: Mycobacterium phlei IFO 3158, 20 μg/disc. As to the method:
as §1

Series [4] relates to Escherichia coli AB 1157. Briefly: paper disk antibacterial test, Escherichia coli AB 1157. It is filed as cell-based. The note with it: 20 μg/disc. As to the method:
as §1

Series [5] concerns Escherichia coli BE 1186. Briefly: paper disk antibacterial test, Escherichia coli BE 1186. It is filed as cell-based. As to conditions: 20 μg/disc, ( ) represents partial inhibition. The procedure: as §1
Series [6] relates to Bacillus subtilis IFO 3513. Briefly: paper disk antibacterial test, Bacillus subtilis IFO 3513. It is filed as cell-based. The note with it: 20 μg/disc; for the diameter of cell growth inhibition zone: ( ) represents partial inhibition. As to the method: as §1
Series [7] has as its system BALB/3T3 cells. Briefly: cytotoxicity test (MTT). It is filed as cell-based. As to conditions: 3 days culture. The procedure: BALB/3T3 cells (100 μl) were inoculated into 10% FBS added DMEM medium (Gibco) in 96 well plate so as to be 1×10^5 cells/ml under 5% CO2 at 37° C., which was cultured overnight. The test substance dissolved in methanol was added thereto, which was cultured for more 3 days and further kept cultured for 4 hours after adding 10 μl of 2.5 mg/ml MTT reagent (Sigma). After removing supernatant, 100 μl of DMSO was added thereto and kept it overnight. The absorbance thereof at 540 nm was determined to detect viable cells.

Series [8] concerns peptidoglycan synthesis. Briefly: inhibitory activity on peptidoglycan synthesis (crude enzyme, UDP-[3H]GlcNAc incorporation). The class given is biochemical, Escherichia coli. The note with it: 0.1 μg/ml. As to the method:
Crude enzyme and substrate UDP-MurNAc-pentapeptide were prepared from Escherichia coli and Bacillus subtilis respectively according to a reference (J. Biol. Chem., 243, 3180 (1968)). Enzymatic reaction was carried out by mixing 5 μl of 1M Tris-HCl (pH 7.5), 10 μl of 0.1M MgCl2, 5 μl of 2 mM UDP-MurNAc-pentapeptide, 5 μl of enzyme solution(15 mg/ml protein concentration), 5 μl of sample, 5 μl of UDP-[U-^3H]GlcNAc (10 μCi/ml, 25.8 Ci/mmol., Du'pont) and 15 μl of water at 37° C. for 60 minutes and […]. After ice-cooling, it was trapped on a GF/C glass filter(2.4 cm, Whatman). And after adding scintillator thereto, radiation thereof was counted. Inhibitory % was calculated by comparing the count of control.

Regarding `CCCCCC=CCC=CCCCCCC(CC(=O)OC1CN(C)C(C(OC2OC(CN)C(O)C2OS(=O)(=O)O)C2OC(n3ccc(=O)[nH]c3=O)C(O)C2O)C(=O)N(C)C1C(=O)O)OC(=O)CC(C)CC(=O)O` (centres unmarked) [Liposidomycins K], the “the diameter of cell growth inhibition zone” value in series [1] is 0 mm; in series [2], 0 mm; in series [3] it was 28.6 mm; in series [4] it was 0 mm. In addition, the “The diameter of cell growth inhibition zone against M. Phlei” value in series [3] (Table 5) is listed as 13.15 mm.

Turning to `CCCCCCCCCCCC(CC(=O)OC1CN(C)C(C(OC2OC(CN)C(O)C2OS(=O)(=O)O)C2OC(n3ccc(=O)[nH]c3=O)C(O)C2O)C(=O)N(C)C1C(=O)O)OC(=O)CC(C)CC(=O)O` (centres unmarked) [Liposidomycins C, reference compound], the “the diameter of cell growth inhibition zone” value came out at 0 mm in series [5]; 0 mm in series [1]; 0 mm in series [2]; 0 mm in series [6]; 22.1 mm in series [3]; 0 mm in series [4]. Also, the “The diameter of cell growth inhibition zone against M. Phlei” value in series [3] (Table 5) was 0 mm.

In the case of `CCCCCC=CCC=CCCCC(CC(=O)OC1CN(C)C(C(OC2OC(CN)C(O)C2O)C2OC(n3ccc(=O)[nH]c3=O)C(O)C2O)C(=O)N(C)C1C(=O)O)OC(=O)CC(C)CC(=O)O` (centres unmarked) [Liposidomycins A-(III)], the “the diameter of cell growth inhibition zone” value in series [5] is on record as 17.8 mm; in series [1] it was 0 mm; in series [2], 0 mm; in series [6] it was 21.0 mm; in series [3] it was 24.8 mm; in series [4], 0 mm. Also, the “Cytotoxicity against BALB/3T3 (IC50)” value in series [7] was greater than 25 µg/mL. The “The diameter of cell growth inhibition zone against M. Phlei” value in series [3] (Table 5) was 11.62 mm; in series [3] (Table 6), 14.3^− mm. Besides, the “Inhibitory activity on peptidoglycan synthesis” value (“Inhibitory activity” for short) in series [8] was 96%.

Regarding `CCCCCC=CCC=CCC(CC(=O)OC1CN(C)C(C(OC2OC(CN)C(O)C2O)C2OC(n3ccc(=O)[nH]c3=O)C(O)C2O)C(=O)N(C)C1C(=O)O)OC(=O)CC(C)CC(=O)O` (centres unmarked) [Liposidomycins Y-(III)], the “The diameter of cell growth inhibition zone against M. Phlei” value in series [3] (Table 5) was 0 mm.

Turning to `CCCCCCCCCCCC(CC(=O)OC1CN(C)C(C(OC2OC(CN)C(O)C2O)C2OC(n3ccc(=O)[nH]c3=O)C(O)C2O)C(=O)N(C)C1C(=O)O)OC(=O)CC(C)CC(=O)O` (centres unmarked) [Liposidomycins C-(III)], the “the diameter of cell growth inhibition zone” value worked out at 14.3 mm in series [5]; 0 mm in series [1]; 0 mm in series [2]; 17.8 mm in series [6]; 30.3 mm in series [3]; 0 mm in series [4]. Further, in series [6], the “the diameter of cell growth inhibition zone, partial inhibition (value in brackets)” value is recorded as “(23.7) mm”. Moreover, the “The diameter of cell growth inhibition zone against M. Phlei” value in series [3] (Table 5) is listed as 16.21 mm.

As for Tunicamycin [TM], the “Cytotoxicity against BALB/3T3 (IC50)” value in series [7] was determined as 0.05 µg/mL. Moreover, the “Inhibitory activity” value in series [8] is listed as 10%.

As for `CCCCCCCCC=CCCCC(CC(=O)OC1CN(C)C(C(OC2OC(CN)C(O)C2O)C2OC(n3ccc(=O)[nH]c3=O)C(O)C2O)C(=O)N(C)C1C(=O)O)OC(=O)CC(C)CC(=O)O` (centres unmarked) [Liposidomycins G-(III)], the “The diameter of cell growth inhibition zone against M. Phlei” value in series [3] (Table 5) was 16.68 mm.

In the case of `CCCCCC=CCC=CCCCCCC(CC(=O)OC1CN(C)C(C(OC2OC(CN)C(O)C2O)C2OC(n3ccc(=O)[nH]c3=O)C(O)C2O)C(=O)N(C)C1C(=O)O)OC(=O)CC(C)CC(=O)O` (centres unmarked) [Liposidomycins K-(III)], the “the diameter of cell growth inhibition zone” value is 13.5 mm in series [5]; 0 mm in series [1]; 0 mm in series [2]; 13.0 mm in series [6]; 23.3 mm in series [3]; 0 mm in series [4]. The “The diameter of cell growth inhibition zone against M. Phlei” value in series [3] (Table 5) was 12.27 mm.

Turning to `CC(C)CCCCCCCCCCC(CC(=O)OC1CN(C)C(C(OC2OC(CN)C(O)C2OS(=O)(=O)O)C2OC(n3ccc(=O)[nH]c3=O)C(O)C2O)C(=O)N(C)C1C(=O)O)OC(=O)CC(C)CC(=O)O` (centres unmarked) [Liposidomycins L], in series [3] (Table 5), the “The diameter of cell growth inhibition zone against M. Phlei” value turned out to be 14.08 mm.

In the case of `CCCCCCCCCCCCCC(CC(=O)OC1CN(C)C(C(OC2OC(CN)C(O)C2O)C2OC(n3ccc(=O)[nH]c3=O)C(O)C2O)C(=O)N(C)C1C(=O)O)OC(=O)CC(C)CC(=O)O` (centres unmarked) [Liposidomycins M-(III)], the “the diameter of cell growth inhibition zone” value in series [1] worked out at 0 mm; in series [2], 0 mm; in series [6] it was 14.8 mm; in series [3] it was 25.7 mm; in series [4] it was 0 mm. In series [3] (Table 5), the “The diameter of cell growth inhibition zone against M. Phlei” value is recorded as 15.49 mm.

With `CCCCCCCCC=CCC(CC(=O)OC1CN(C)C(C(OC2OC(CN)C(O)C2O)C2OC(n3ccc(=O)[nH]c3=O)C(O)C2O)C(=O)N(C)C1C(=O)O)OC(=O)CC(C)CC(=O)O` (centres unmarked) [Liposidomycins Z-(III)], the “the diameter of cell growth inhibition zone” value in series [5] stood at 18.8 mm; in series [1] it was 0 mm; in series [2] it was 0 mm; in series [6] it was 22.2 mm; in series [3], 26.3 mm; in series [4], 0 mm. Moreover, in series [3] (Table 5), the “The diameter of cell growth inhibition zone against M. Phlei” value is on record as 13.74 mm.

Take `CCCCCCCCC=CCC(CC(=O)OC1CN(C)C(C(OC2OC(CN)C(O)C2OS(=O)(=O)O)C2OC(n3ccc(=O)[nH]c3=O)C(O)C2O)C(=O)N(C)C1C(=O)O)OC(=O)CC(C)CC(=O)O` (centres unmarked) [Liposidomycins Z]: the “the diameter of cell growth inhibition zone” value in series [1], in series [2], in series [6] and in series [4] was 0 mm each time. In addition, the “The diameter of cell growth inhibition zone against M. Phlei” value in series [3] (Table 5) came to 0 mm.

`CCCCCCCCCCCCCC(CC(=O)OC1CN(C)C(C(OC2OC(CN)C(O)C2OS(=O)(=O)O)C2OC(n3ccc(=O)[nH]c3=O)C(O)C2O)C(=O)N(C)C1C(=O)O)OC(=O)CC(C)CC(=O)O` (centres unmarked) [Liposidomycins M]: the “the diameter of cell growth inhibition zone” value amounted to 0 mm in series [5]; 0 mm in series [1]; 0 mm in series [2]; 9.7 mm in series [6]; 27.2 mm in series [3]; 0 mm in series [4]. Moreover, the “the diameter of cell growth inhibition zone, partial inhibition (value in brackets)” value in series [6] was “(13.0) mm”. Further, in series [3] (Table 5), the “The diameter of cell growth inhibition zone against M. Phlei” value was determined as 16.86 mm.

Turning to `CCCCCC=CCC=CCCCC(CC(=O)OC1CN(C)C(C(OC2OC(CN)C(O)C2OS(=O)(=O)O)C2OC(n3ccc(=O)[nH]c3=O)C(O)C2O)C(=O)N(C)C1C(=O)O)OC(=O)CC(C)CC(=O)O` (centres unmarked) [Liposidomycins A, reference compound], the “the diameter of cell growth inhibition zone” value in series [1] turned out to be 0 mm; in series [2], 0 mm; in series [6], 0 mm; in series [3], 18.9 mm; in series [4] it was 0 mm. In addition, the “Cytotoxicity against BALB/3T3 (IC50)” value in series [7] was greater than 25 µg/mL. Further, the “The diameter of cell growth inhibition zone against M. Phlei” value in series [3] (Table 5) and in series [3] (Table 6) was 0 mm throughout. In addition, in series [8], the “Inhibitory activity” value is listed as 95%.
